{"source": "patent US20150087605A1", "about": "(priority 2013, published 2015)", "key": {"[1]": {"test_system": "RAW 264.7 macrophages treated with LeTx (PA and LF)", "assay": "cells", "settings": "Mus musculus, RAW264.7, read-out: IC50 Cell Viability"}, "[2]": {"target": "Anthrax Lethal Factor (LF) (Bacillus anthracis, UniProt P15917)", "sequence (P15917 34-809 limits assumed)": "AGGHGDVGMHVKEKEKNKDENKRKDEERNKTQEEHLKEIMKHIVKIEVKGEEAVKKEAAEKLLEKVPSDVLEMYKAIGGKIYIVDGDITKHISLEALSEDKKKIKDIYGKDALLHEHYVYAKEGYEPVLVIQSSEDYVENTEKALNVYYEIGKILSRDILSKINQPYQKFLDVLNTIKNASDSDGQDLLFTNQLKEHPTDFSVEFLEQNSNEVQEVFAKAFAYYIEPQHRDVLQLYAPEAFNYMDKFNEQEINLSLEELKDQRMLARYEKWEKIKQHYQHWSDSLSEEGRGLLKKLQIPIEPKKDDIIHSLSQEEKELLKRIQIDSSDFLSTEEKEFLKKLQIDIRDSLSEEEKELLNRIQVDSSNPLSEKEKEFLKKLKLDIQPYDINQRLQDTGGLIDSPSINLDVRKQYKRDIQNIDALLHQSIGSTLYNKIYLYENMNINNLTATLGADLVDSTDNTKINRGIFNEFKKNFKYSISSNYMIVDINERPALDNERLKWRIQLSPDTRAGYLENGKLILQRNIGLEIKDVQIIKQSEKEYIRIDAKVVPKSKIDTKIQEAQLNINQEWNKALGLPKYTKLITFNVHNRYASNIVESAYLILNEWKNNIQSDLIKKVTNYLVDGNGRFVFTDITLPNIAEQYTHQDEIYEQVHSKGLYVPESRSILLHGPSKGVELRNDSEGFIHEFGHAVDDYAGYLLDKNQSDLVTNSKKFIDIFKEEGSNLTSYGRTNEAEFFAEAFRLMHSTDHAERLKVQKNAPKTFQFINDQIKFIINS", "assay": "biochemical", "assay_type": "binding"}, "[3]": {"target": "LF protease activity (Bacillus anthracis, UniProt P15917)", "sequence (P15917 34-809 limits assumed)": "as above", "assay": "biochemical"}, "[4]": {"test_system": "RAW 264.7 macrophages treated with LeTx (PA and LF)"}, "[5]": {"target": "COX-1 (Homo sapiens, UniProt P23219)", "sequence (P23219 24-599)": "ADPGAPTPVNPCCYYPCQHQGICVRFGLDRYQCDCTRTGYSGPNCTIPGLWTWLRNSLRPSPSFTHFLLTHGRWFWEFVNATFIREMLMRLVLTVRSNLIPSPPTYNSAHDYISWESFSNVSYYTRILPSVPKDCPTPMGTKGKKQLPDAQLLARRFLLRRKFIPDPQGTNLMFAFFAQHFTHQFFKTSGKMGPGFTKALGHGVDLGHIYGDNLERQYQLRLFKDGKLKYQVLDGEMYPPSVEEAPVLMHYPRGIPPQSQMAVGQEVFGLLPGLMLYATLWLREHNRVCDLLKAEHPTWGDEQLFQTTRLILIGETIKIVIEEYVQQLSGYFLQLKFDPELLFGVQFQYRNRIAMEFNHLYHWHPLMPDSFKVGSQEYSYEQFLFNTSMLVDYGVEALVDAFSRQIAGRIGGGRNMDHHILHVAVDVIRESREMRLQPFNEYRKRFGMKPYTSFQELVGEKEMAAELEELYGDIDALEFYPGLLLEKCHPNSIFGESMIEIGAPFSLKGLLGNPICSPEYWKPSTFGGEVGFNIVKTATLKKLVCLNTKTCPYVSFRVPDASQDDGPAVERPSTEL", "settings": "read-out: IC50 COX-1; cited from earlier work"}, "[6]": {"settings": "in vivo, cited from earlier work"}, "[7]": {"target": "COX-2 (Homo sapiens, UniProt P35354)", "sequence (P35354 18-604)": "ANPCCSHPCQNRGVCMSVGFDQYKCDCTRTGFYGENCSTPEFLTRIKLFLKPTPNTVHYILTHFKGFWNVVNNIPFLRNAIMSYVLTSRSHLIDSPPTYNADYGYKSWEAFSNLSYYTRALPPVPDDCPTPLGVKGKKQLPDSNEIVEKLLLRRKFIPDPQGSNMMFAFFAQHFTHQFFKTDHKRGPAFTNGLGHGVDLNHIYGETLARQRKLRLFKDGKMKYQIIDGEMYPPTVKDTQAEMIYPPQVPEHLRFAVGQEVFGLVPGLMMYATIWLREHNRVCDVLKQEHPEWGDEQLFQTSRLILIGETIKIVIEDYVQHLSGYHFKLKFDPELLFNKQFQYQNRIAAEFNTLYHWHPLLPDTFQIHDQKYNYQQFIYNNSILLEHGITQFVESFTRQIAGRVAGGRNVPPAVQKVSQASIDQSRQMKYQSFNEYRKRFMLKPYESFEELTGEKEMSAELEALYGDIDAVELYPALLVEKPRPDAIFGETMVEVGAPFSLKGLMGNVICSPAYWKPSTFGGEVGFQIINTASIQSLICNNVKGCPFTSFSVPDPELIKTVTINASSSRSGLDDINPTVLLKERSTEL", "settings": "read-out: IC50 COX-2; cited from earlier work"}}, "note": "Read-outs that look alike come from different tables or passages of the source.", "data": [{"smiles": "CCCCc1ccc(C(=O)O)nc1", "note": "[Fusaric Acid]", "values": [{"measurement": "IC50", "setting": "[1]", "value": 75.3, "unit": "µM"}, {"measurement": "Kd", "setting": "[2]", "value": 4.5, "unit": "µM"}, {"measurement": "IC50", "setting": "[3]; IC50 Protease Activity", "value": 530, "unit": "µM"}]}, {"smiles": "COc1ccc2cc([C@H](C)C(=O)O)ccc2c1", "note": "[Naproxen, (S)-(+)-6-Methoxy-α-methyl-2-naphthaleneacetic acid]", "values": [{"measurement": "inhibition of LeTx cytotoxicity (in words)", "setting": "[4]", "value": "failed to inhibit LeTx"}, {"measurement": "inhibition of LF protease activity (in words)", "setting": "[3]", "value": "failed to inhibit LF"}]}, {"smiles": "CC1=C(CC(=O)O)c2cc(F)ccc2/C1=C\\c1ccc([S+](C)[O-])cc1", "note": "(stereo not shown) [Sulindac]", "values": [{"measurement": "IC50", "setting": "[1]", "value": 31.7, "unit": "µM"}, {"measurement": "IC50", "setting": "[5]", "value": 41.3, "unit": "µM"}, {"measurement": "Kd", "setting": "[2]", "value": 2.8, "unit": "µM"}, {"measurement": "IC50", "setting": "[3]; IC50 Protease Activity", "value": 173, "unit": "µM"}, {"measurement": "mean half-life", "setting": "[6]; 150 mg", "value": 7.8, "unit": "h"}, {"measurement": "maximum concentration in human blood plasma", "setting": "[6]", "value": "5.71 ± 2.17", "unit": "µg/mL"}, {"measurement": "IC50", "setting": "[7]", "value": 25, "unit": "µM"}]}, {"smiles": "CCCCc1ccc(C(=O)NCCCN=[N+]=[N-])nc1", "note": "[fusaric acid-N3]", "values": [{"measurement": "IC50", "setting": "[1]", "value": 164, "unit": "µM"}, {"measurement": "IC50", "setting": "[3]; IC50 (fluorogenic substrate assay)", "value": 1100, "unit": "µM"}]}, {"smiles": "CCCCc1ccc(C(=O)NCCCn2cc(CNC(C)=O)nn2)nc1", "note": "[fusaric acid-bMR]", "values": [{"measurement": "IC50", "setting": "[4]; mouse", "value": 0.721, "unit": "µM"}, {"measurement": "IC50", "setting": "[3]; IC50 Protease Activity", "value": "1.2 ± 0.36", "unit": "µM"}]}, {"smiles": "CSc1ccc(/C=C2/C(C)=C(CC(=O)O)c3cc(F)ccc32)cc1", "note": "[sulindac sulfide, Sulindac Sulfide]", "values": [{"measurement": "IC50", "setting": "[1]", "value": 20.4, "unit": "µM"}, {"measurement": "IC50", "setting": "[3]; IC50 Protease Activity", "value": 19.1, "unit": "µM"}]}, {"smiles": "CC1=C(CC(=O)O)c2cc(F)ccc2/C1=C\\c1ccc(S(C)(=O)=O)cc1", "note": "[sulindac sulfone, Sulindac Sulfone]", "values": [{"measurement": "IC50", "setting": "[4]; read-out: IC50 Cell Viability", "value": 56.6, "unit": "µM"}, {"measurement": "IC50", "setting": "[3]; read-out: IC50 Protease Activity", "value": 185, "unit": "µM"}]}, {"smiles": "CC1=C(CC(=O)NCCCN=[N+]=[N-])c2cc(F)ccc2/C1=C\\c1ccc([S+](C)[O-])cc1", "note": "(stereo not shown) [sulindac-N3]", "values": [{"measurement": "IC50", "setting": "[1]", "value": 90.1, "unit": "µM"}, {"measurement": "IC50", "setting": "[3]; IC50 Protease Activity", "value": 420, "unit": "µM"}]}]}
